Laboratory results from US8952024B2, “Herbicidal pyrimidone derivatives” (E I du Pont de Nemours and Company, priority 2009, dated 2015).

What was measured:
Type in all cases: in vivo
[1] = system: barnyardgrass (Echinochloa crus-galli); test: Test B flooded paddy test; conditions: for Plant response rating, Flood, Barnyardgrass: 250 g ai/ha, flooded paddy test, visual rating on 0 to 100 scale (0 no effect, 100 complete control) after 13 to 15 days; for Plant response rating, Barnyardgrass: Flood (flooded paddy test), 13 to 15 days
Excerpt: (§1) Plant species in the flooded paddy test consisted of rice (Oryza sativa), umbrella sedge (Cyperus difformis), ducksalad (Heteranthera limosa) and barnyardgrass (Echinochloa crus-galli) grown to the 2-leaf stage for testing. At the time of treatment, test pots were flooded with water to 3 cm above the soil surface, treated by application of test compounds directly to the paddy water, and then maintained at that water depth for the duration of the test.
(§2) Treated plants and controls were maintained in a greenhouse for 13 to 15 days, after which time all treated plants were visually evaluated and compared to controls. Plant response ratings, summarized in Table B, are based on a scale of 0 to 100 where 0 is no effect and 100 is complete control. A dash (-) response means no test result.

[2] = system: ducksalad (Heteranthera limosa); test: Test B flooded paddy test; conditions: for Plant response rating, Flood, Ducksalad: 250 g ai/ha, flooded paddy test, visual rating on 0 to 100 scale (0 no effect, 100 complete control) after 13 to 15 days; for Plant response rating, Ducksalad: Flood (flooded paddy test), 13 to 15 days
Excerpt: as §1, §2

[3] = system: umbrella sedge (Cyperus difformis); test: Test B flooded paddy test; conditions: for Plant response rating, Flood, Sedge, Umbrella: 250 g ai/ha, flooded paddy test, visual rating on 0 to 100 scale (0 no effect, 100 complete control) after 13 to 15 days; for Plant response rating, Sedge, Umbrella: Flood (flooded paddy test), 13 to 15 days
Excerpt: as §1, §2

rice (Oryza sativa) = test: Test B flooded paddy test; conditions: for Plant response rating, Flood, Rice: 250 g ai/ha, flooded paddy test, visual rating on 0 to 100 scale (0 no effect, 100 complete control) after 13 to 15 days; for Plant response rating, Rice: Flood (flooded paddy test), 13 to 15 days
Excerpt: as §1, §2

[4] = system: barnyardgrass (Echinochloa crus-galli); test: Test A pre-/postemergence plant response
Excerpt: (§3) Seeds of barnyardgrass (Echinochloa crus-galli), large crabgrass (Digitaria sanguinalis), giant foxtail (Setaria faberii), morningglory (Ipomoea spp.), pigweed (Amaranthus retroflexus), velvetleaf (Abutilon theophrasti), wheat (Triticum aestivum) and corn (Zea mays) were planted into a blend of loam soil and sand and treated preemergence with a directed soil spray using test chemicals formulated in a non-phytotoxic solvent mixture which included a surfactant. At the same time these species were also treated with postemergence applications of test compounds formulated in the same manner.
(§4) Plants ranged in height from two to ten cm and were in the one- to two-leaf stage for the postemergence treatment. Treated plants and untreated controls were maintained in a greenhouse for approximately ten days, after which time all treated plants were compared to untreated controls and visually evaluated for injury. Plant response ratings, summarized in Table A, are based on a 0 to 100 scale where 0 is no effect and 100 is complete control. A dash (-) response means no test result.

[5] = system: pigweed (Amaranthus retroflexus); test: Test A pre-/postemergence plant response
Excerpt: as §3, §4

corn (Zea mays) = test: Test A pre-/postemergence plant response
Excerpt: as §3, §4

[6] = system: velvetleaf (Abutilon theophrasti); test: Test A pre-/postemergence plant response
Excerpt: as §3, §4

[7] = system: morningglory (Ipomoea spp.); test: Test A pre-/postemergence plant response
Excerpt: as §3, §4

[8] = system: large crabgrass (Digitaria sanguinalis); test: Test A pre-/postemergence plant response
Excerpt: as §3, §4

[9] = system: giant foxtail (Setaria faberii); test: Test A pre-/postemergence plant response
Excerpt: as §3, §4

[10] = system: wheat (Triticum aestivum); test: Test A pre-/postemergence plant response
Excerpt: as §3, §4

[11] = 31 g ai/ha, scale of 0 to 100 where 0 is no effect and 100 is complete control
[12] = 62 g ai/ha, scale of 0 to 100 where 0 is no effect and 100 is complete control
[13] = 125 g ai/ha, scale 0 to 100, 0 is no effect, 100 is complete control
[14] = Postemergence, 125 g ai/ha, visual injury, 0 to 100 scale (0 no effect, 100 complete control), approx. ten days
[15] = Postemergence, 500 g ai/ha, 0 to 100 scale, 0 = no effect, 100 = complete control, approx. ten days
[16] = Preemergence, 125 g ai/ha, 0 to 100 scale, 0 = no effect, 100 = complete control
[17] = Preemergence, 500 g ai/ha, visual injury, 0 to 100 scale (0 no effect, 100 complete control), approx. ten days
[18] = Flood, 31 g ai/ha, scale 0 to 100 (0 no effect, 100 complete control)

O=C1CCCC(O)=C1C(=O)c1cnc(-c2ccccc2)n(-c2ccc(F)cc2F)c1=O [Compound 57]
25: Plant response rating, Flood, Barnyardgrass [1] | Plant response rating, Flood, Rice (rice (Oryza sativa))
50: Plant response rating, Sedge, Umbrella [3, 13] | Morningglory plant response rating [7, 14]
20: Plant response rating, Barnyardgrass [1, 13] | Plant response rating, Morningglory [7, 16]
15: Plant response rating, Rice (rice (Oryza sativa); [13])
80: Plant response rating, Velvetleaf [6, 16] | Plant response rating, Morningglory [7, 17] | Crabgrass, Large plant response rating [8, 14] | Foxtail, Giant plant response rating [9, 14]
75: Plant response rating, Flood, Sedge, Umbrella [3]
70: Barnyardgrass plant response rating [4, 14] | Plant response rating, Foxtail, Giant [9, 16]
90: Plant response rating, Barnyardgrass [4, 15] | Plant response rating, Barnyardgrass [4, 17] | Pigweed plant response rating [5, 14] | Plant response rating, Pigweed [5, 16] | Plant response rating, Crabgrass, Large [8, 15] | Plant response rating, Crabgrass, Large [8, 16] | Plant response rating, Foxtail, Giant [9, 15] | Plant response rating, Foxtail, Giant [9, 17]
0: Plant response rating, Barnyardgrass [1, 11] | Plant response rating, Barnyardgrass [1, 12] | Plant response rating, Ducksalad [2, 11] | Plant response rating, Ducksalad [2, 12] | Plant response rating, Sedge, Umbrella [3, 11] | Plant response rating, Sedge, Umbrella [3, 12] | Plant response rating, Rice (rice (Oryza sativa); [11]) | Plant response rating, Rice (rice (Oryza sativa); [12]) | Corn plant response rating (corn (Zea mays); [14]) | Plant response rating, Corn (corn (Zea mays); [16]) | Plant response rating, Corn (corn (Zea mays); [17]) | Wheat plant response rating [10, 14] | Plant response rating, Wheat [10, 16] | Plant response rating, Wheat [10, 17]
10: Plant response rating, Wheat [10, 15]
40: Plant response rating, Ducksalad [2, 13] | Plant response rating, Barnyardgrass [4, 16] | Plant response rating, Corn (corn (Zea mays); [15])
100: Plant response rating, Pigweed [5, 15] | Plant response rating, Pigweed [5, 17] | Velvetleaf plant response rating [6, 14] | Plant response rating, Velvetleaf [6, 15] | Plant response rating, Velvetleaf [6, 17] | Plant response rating, Crabgrass, Large [8, 17]
60: Plant response rating, Flood, Ducksalad [2] | Plant response rating, Morningglory [7, 15]

O=C1CCCC(O)=C1C(=O)c1cnc(-c2ccc(Cl)s2)n(-c2ccccc2)c1=O [Compound 65]
50: Plant response rating, Barnyardgrass [4, 15] | Plant response rating, Velvetleaf [6, 17] | Morningglory plant response rating [7, 14]
30: Plant response rating, Velvetleaf [6, 16] | Crabgrass, Large plant response rating [8, 14]
10: Barnyardgrass plant response rating [4, 14] | Plant response rating, Barnyardgrass [4, 17] | Plant response rating, Crabgrass, Large [8, 16] | Foxtail, Giant plant response rating [9, 14]
20: Pigweed plant response rating [5, 14]
0: Plant response rating, Flood, Barnyardgrass [1] | Plant response rating, Barnyardgrass [1, 12] | Plant response rating, Barnyardgrass [1, 13] | Barnyardgrass plant response rating [1, 18] | Plant response rating, Flood, Ducksalad [2] | Plant response rating, Ducksalad [2, 12] | Plant response rating, Ducksalad [2, 13] | Ducksalad plant response rating [2, 18] | Plant response rating, Flood, Sedge, Umbrella [3] | Plant response rating, Sedge, Umbrella [3, 12] | Plant response rating, Sedge, Umbrella [3, 13] | Sedge, Umbrella plant response rating [3, 18] | Plant response rating, Flood, Rice (rice (Oryza sativa)) | Plant response rating, Rice (rice (Oryza sativa); [12]) | Plant response rating, Rice (rice (Oryza sativa); [13]) | Rice plant response rating (rice (Oryza sativa); [18]) | Plant response rating, Barnyardgrass [4, 16] | Plant response rating, Pigweed [5, 16] | Plant response rating, Pigweed [5, 17] | Corn plant response rating (corn (Zea mays); [14]) | Plant response rating, Corn (corn (Zea mays); [15]) | Plant response rating, Corn (corn (Zea mays); [16]) | Plant response rating, Corn (corn (Zea mays); [17]) | Plant response rating, Morningglory [7, 16] | Plant response rating, Morningglory [7, 17] | Plant response rating, Foxtail, Giant [9, 16] | Wheat plant response rating [10, 14] | Plant response rating, Wheat [10, 15] | Plant response rating, Wheat [10, 16] | Plant response rating, Wheat [10, 17]
100: Plant response rating, Velvetleaf [6, 15]
80: Plant response rating, Crabgrass, Large [8, 17]
40: Plant response rating, Foxtail, Giant [9, 15] | Plant response rating, Foxtail, Giant [9, 17]
60: Plant response rating, Pigweed [5, 15] | Plant response rating, Morningglory [7, 15] | Plant response rating, Crabgrass, Large [8, 15]
90: Velvetleaf plant response rating [6, 14]
